{"source": "patent US11402382B2", "about": "“Diagnostic and therapeutic methods for cancer” (Genentech, Inc., priority 2017, dated 2022)", "key": {"[1]": {"experiment": "IMmotion150 phase 2 randomized trial: safety (adverse events);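 on all read-outs here: Open-label multicenter randomized phase 2 trial with three treatment arms, safety set restricted to patients who actually received study drug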", "settings": "for Arthralgia / Constipation / Cough / Decreased appetite / Diarrhea / Dysgeusia / Epistaxis / Fatigue / Headache / Hypertension / Infections and infestations / Mucosal inflammation / Nausea / Palmar-plantar erythrodysesthesia syndrome / Proteinuria / Pruritus / Pyrexia / Rash / Stomatitis / Vomiting: AEs occurring in ≥20% of patients in any arm; for Treatment-related AE: all grade; for AEs leading to death: events: footnote a of Table 23", "protocol": "Study treatment consisted of atezolizumab 1200 mg fixed intravenous dose +bevacizumab 15 mg/kg every three weeks, atezolizumab 1200 mg fixed intravenous dose every three weeks, or sunitinib 50 mg/day orally for four weeks followed by two weeks of rest. On disease progression (as assessed by the investigator per RECIST v1.1), patients randomized to atezolizumab monotherapy or sunitinib had the option to cross over and receive the atezolizumab+bevacizumab combination in some regions (option was not available in Europe). In the absence of unacceptable toxicity, treatment with the combination continued until evidence of progressive disease. Where permitted, patients in the atezolizumab-containing arms could continue to be treated beyond disease progression per RECIST v1.1 until lack of clinical benefit; those in non-European nations could cross over to atezolizumab+bevacizumab therapy at any time after disease progression per RECIST v1.1, provided all eligibility criteria were met."}, "[2]": {"tested_on": "previously untreated metastatic renal cell carcinoma (mRCC)", "experiment": "IMmotion150 phase 2 randomized trial: efficacy (PFS, ORR per RECIST v1.1, IRF)", "assay_type": "in vivo, human", "settings": "IRF-assessed", "description": "A phase II clinical study, IMmotion150 (NCT01984242), was performed to evaluate the safety and tolerability of atezolizumab, alone or in combination with bevacizumab, as compared to sunitinib in patients with previously untreated metastatic renal cell carcinoma (mRCC). Integrated tumor genomic analyses were also performed to correlate molecular biomarkers with observed clinical outcomes in the phase II study.\nThe primary objective of this phase 2 trial was to evaluate the efficacy of atezolizumab+bevacizumab and atezolizumab monotherapy compared with sunitinib.\nThe original primary endpoint was PFS per Response Evaluation Criteria In Solid Tumors version 1.1 (RECIST v1.1) via IRF in the ITT population. Although patients were stratified by ≥5% PD-L1 expression on IC, the definition of PD-L1 positivity was revised from ≥5% to ≥1% PD-L1 expression on IC, based on phase 1a data, and the study protocol was amended to create PD-L1 expression on IC as a coprimary endpoint of IRF-assessed PFS. […] Secondary endpoints included investigator (INV)-assessed PFS, ORR, and duration of response (DOR) per RECIST v1.1, overall survival (OS), patient-reported outcomes, and safety. Key exploratory objectives included evaluation of the relationship between the expression of predictive and prognostic exploratory biomarkers and their association with disease status and efficacy as defined by ORR and PFS.\nDuring the study, each cycle was six weeks (42 days) in duration, and data on tumor measurement and survival status were collected for evaluation of PFS, milestone PFS (at 24, 52, and 76 weeks), OS, and ORR per RECIST v1.1. Tumor assessments occurred at baseline and every 12 weeks ±five business days after Cycle 1, Day 1, or more frequently if clinically indicated. Patients who discontinued first-line treatment or crossover treatment were followed up for survival approximately every three months until death, withdrawal of consent, loss to follow-up, or study termination. Patients who discontinued study treatment for reasons other than disease progression (e.g., toxicity) continued to undergo scheduled tumor assessments (every 12 weeks) until death, disease progression per RECIST v1.1, withdrawal of consent, or study termination, whichever occurred first.\nKaplan-Meier methodology was used to estimate the median PFS for each treatment arm, and Kaplan-Meier curves were produced. The primary analysis was triggered when 140 INV-PFS events occurred among patients treated with atezolizumab+bevacizumab and with sunitinib or among patients treated with atezolizumab alone and with sunitinib, whichever occurred later. The HR estimates and their 95% CIs were determined by using the stratified Cox proportional hazards model. The stratification factors included prior nephrectomy, tumor PD-L1 status, and MSKCC score and were determined based on data from the electronic case report form; if such data were missing, data collected by the IxRS at the time of randomization were used. Tumor specimens were prospectively tested for PD-L1 expression on ICs by a central laboratory using the SP142 IHC assay (VENTANA, Tucson, Ariz.). IC staining was defined as follows: any discernible PD-L1 staining of any intensity in IC covering <1% or absent (ICO), between ≥1% and <5% (IC1), between ≥5% and <10% (IC2), or ≥10% (IC3) of tumor area occupied by tumor cells, associated intratumoral, and contiguous peri-tumoral desmoplastic stroma."}, "[3]": {"settings": "AE of special interest, All Grade"}, "[4]": {"settings": "AE of special interest, Grade 3/4"}, "[5]": {"settings": "PD-L1+ population (≥1% PD-L1 expression on IC)"}}}
{"molecule": "CCN(CC)CCNC(=O)c1c(C)[nH]c(/C=C2\\C(=O)Nc3ccc(F)cc32)c1C", "note": "[Sunitinib, N-[2-(Diethylamino)ethyl]-5-[(Z)-(5-fluoro-2-oxo-1,2-dihydro-3H-indol-3-ylidene)methyl]-2,4-dimethyl-1H-pyrrole-3-carboxamide]", "values": [{"measurement": "AEs leading to death", "setting": "[1]; % of patients", "result": "(2%)"}, {"measurement": "AEs leading to dose modification or interruption", "setting": "[1]; % of patients", "result": "(70%)"}, {"measurement": "AEs leading to withdrawal from treatment", "setting": "[1]; % of patients", "result": "(10%)"}, {"measurement": "Grade 3/4 AEs, any cause", "setting": "[1]; % of patients", "result": "(69%)"}, {"measurement": "Treatment-related AEs leading to death", "setting": "[1]; % of patients", "result": "(2%)"}, {"measurement": "Treatment-related AEs leading to withdrawal from treatment", "setting": "[1]; % of patients", "result": "(9%)"}, {"measurement": "Treatment-related grade 3/4 AEs", "setting": "[1]; % of patients", "result": "(57%)"}, {"measurement": "Treatment-related AEs leading to withdrawal from treatment", "setting": "[1]; % of patients, listed as sunitinib", "result": 9, "unit": "%"}, {"measurement": "Decreased blood cortisol/adrenal insufficiency", "setting": "[1]; [3]", "result": 0, "unit": "n"}, {"measurement": "Pneumonitis", "setting": "[1]; [3]", "result": 0, "unit": "n"}, {"measurement": "Colitis", "setting": "[1]; [4]", "result": 0, "unit": "n"}, {"measurement": "Decreased blood cortisol/adrenal insufficiency", "setting": "[1]; [4]", "result": 0, "unit": "n"}, {"measurement": "Pneumonitis", "setting": "[1]; [4]", "result": 0, "unit": "n"}, {"measurement": "TSH decreased/hypothyroidism", "setting": "[1]; [4]", "result": 0, "unit": "n"}, {"measurement": "TSH increased/hyperthyroidism", "setting": "[1]; [4]", "result": 0, "unit": "n"}, {"measurement": "Arthralgia", "setting": "[1]", "result": "(18.0%)"}, {"measurement": "Constipation", "setting": "[1]", "result": "(30.0%)"}, {"measurement": "Cough", "setting": "[1]", "result": "(25.0%)"}, {"measurement": "Decreased appetite", "setting": "[1]", "result": "(29.0%)"}, {"measurement": "Diarrhea", "setting": "[1]", "result": "(59.0%)"}, {"measurement": "Dysgeusia", "setting": "[1]", "result": "(30.0%)"}, {"measurement": "Epistaxis", "setting": "[1]", "result": "(12.0%)"}, {"measurement": "Fatigue", "setting": "[1]", "result": "(70.0%)"}, {"measurement": "Headache", "setting": "[1]", "result": "(23.0%)"}, {"measurement": "Hypertension", "setting": "[1]", "result": "(35.0%)"}, {"measurement": "Infections and infestations", "setting": "[1]", "result": "(32.0%)"}, {"measurement": "Mucosal inflammation", "setting": "[1]", "result": "(33.0%)"}, {"measurement": "Nausea", "setting": "[1]", "result": "(45.0%)"}, {"measurement": "Palmar-plantar erythrodysesthesia syndrome", "setting": "[1]", "result": "(40.0%)"}, {"measurement": "Proteinuria", "setting": "[1]", "result": "(9.0%)"}, {"measurement": "Pruritus", "setting": "[1]", "result": "(10.0%)"}, {"measurement": "Pyrexia", "setting": "[1]", "result": "(12.0%)"}, {"measurement": "Rash", "setting": "[1]", "result": "(13.0%)"}, {"measurement": "Stomatitis", "setting": "[1]", "result": "(25.0%)"}, {"measurement": "Vomiting", "setting": "[1]", "result": "(20.0%)"}, {"measurement": "Arthralgia", "setting": "[1]; number of patients", "result": 18}, {"measurement": "Constipation", "setting": "[1]; number of patients", "result": 30}, {"measurement": "Cough", "setting": "[1]; number of patients", "result": 25}, {"measurement": "Decreased appetite", "setting": "[1]; number of patients", "result": 29}, {"measurement": "Diarrhea", "setting": "[1]; number of patients", "result": 59}, {"measurement": "Dysgeusia", "setting": "[1]; number of patients", "result": 30}, {"measurement": "Epistaxis", "setting": "[1]; number of patients", "result": 12}, {"measurement": "Fatigue", "setting": "[1]; number of patients", "result": 70}, {"measurement": "Headache", "setting": "[1]; number of patients", "result": 23}, {"measurement": "Hypertension", "setting": "[1]; number of patients", "result": 35}, {"measurement": "Infections and infestations", "setting": "[1]; number of patients", "result": 32}, {"measurement": "Mucosal inflammation", "setting": "[1]; number of patients", "result": 33}, {"measurement": "Nausea", "setting": "[1]; number of patients", "result": 45}, {"measurement": "Palmar-plantar erythrodysesthesia syndrome", "setting": "[1]; number of patients", "result": 40}, {"measurement": "Proteinuria", "setting": "[1]; number of patients", "result": 9}, {"measurement": "Pruritus", "setting": "[1]; number of patients", "result": 10}, {"measurement": "Pyrexia", "setting": "[1]; number of patients", "result": 12}, {"measurement": "Rash", "setting": "[1]; number of patients", "result": 13}, {"measurement": "Stomatitis", "setting": "[1]; number of patients", "result": 25}, {"measurement": "Vomiting", "setting": "[1]; number of patients", "result": 20}, {"measurement": "Treatment-related AE", "setting": "[1]; % of patients", "result": "(96%)"}, {"measurement": "Treatment-related AE", "setting": "[1]; number of patients", "result": 96, "unit": "n"}, {"measurement": "AEs leading to death: events", "setting": "[1]", "result": "sudden death (related), intestinal hemorrhage (related)"}, {"measurement": "related AE leading to treatment discontinuation: increased blood creatinine", "setting": "[1]; in vivo", "result": 2, "unit": "%"}, {"measurement": "related AE leading to treatment discontinuation: palmar-plantar erythrodysesthesia syndrome", "setting": "[1]; in vivo", "result": 2, "unit": "%"}, {"measurement": "AEs leading to death", "setting": "[1]; number of patients", "result": 2, "unit": "n"}, {"measurement": "AEs leading to dose modification or interruption", "setting": "[1]; number of patients", "result": 70, "unit": "n"}, {"measurement": "AEs leading to withdrawal from treatment", "setting": "[1]; number of patients", "result": 10, "unit": "n"}, {"measurement": "All-grade AEs, any cause", "setting": "[1]; number of patients", "result": 99, "unit": "n"}, {"measurement": "Grade 3/4 AEs, any cause", "setting": "[1]; number of patients", "result": 69, "unit": "n"}, {"measurement": "Treatment-related AEs leading to death", "setting": "[1]; number of patients", "result": 2, "unit": "n"}, {"measurement": "Treatment-related AEs leading to withdrawal from treatment", "setting": "[1]; number of patients", "result": 9, "unit": "n"}, {"measurement": "Treatment-related grade 3/4 AEs", "setting": "[1]; number of patients", "result": 57, "unit": "n"}, {"measurement": "complete response (CR)", "setting": "[2]; ITT population", "result": 5, "unit": "%"}, {"measurement": "median progression-free survival (PFS)", "setting": "[2]; ITT population", "result": 8.4, "unit": "months"}, {"measurement": "objective response rate (ORR)", "setting": "[2]; ITT population", "result": 29, "unit": "%"}, {"measurement": "partial response (PR)", "setting": "[2]; ITT population", "result": 24, "unit": "%"}, {"measurement": "complete response (CR)", "setting": "[2]; PD-L1+ patients", "result": 7, "unit": "%"}, {"measurement": "objective response rate (ORR)", "setting": "[2]; PD-L1+ patients", "result": 27, "unit": "%"}, {"measurement": "partial response (PR)", "setting": "[2]; PD-L1+ patients", "result": 20, "unit": "%"}, {"measurement": "median progression-free survival (PFS)", "setting": "[2]; [5]", "result": 7.8, "unit": "months"}]}
{"molecule": "Atezo: anti-PD-L1 antibody atezolizumab (CAS Registry Number: 1422185-06-5), Genentech, also known as MPDL3280A", "values": [{"measurement": "AEs leading to death", "setting": "[1]; % of patients", "result": "(2%)"}, {"measurement": "AEs leading to death: events", "setting": "[1]", "result": "hematophagic hitiocytosis, lower respiratory tract infection"}, {"measurement": "AEs leading to death", "setting": "[1]; number of patients", "result": 2, "unit": "n"}, {"measurement": "Treatment-related AEs leading to death", "setting": "[1]; number of patients", "result": 0, "unit": "n"}, {"measurement": "Stratified PFS HR (95% CI) vs sunitinib", "setting": "[2]; ITT population", "result": 1.19}, {"measurement": "complete response (CR)", "setting": "[2]; ITT population", "result": 11, "unit": "%"}, {"measurement": "median progression-free survival (PFS)", "setting": "[2]; ITT population", "result": 6.1, "unit": "months"}, {"measurement": "objective response rate (ORR)", "setting": "[2]; ITT population", "result": 25, "unit": "%"}, {"measurement": "partial response (PR)", "setting": "[2]; ITT population", "result": 14, "unit": "%"}, {"measurement": "Stratified PFS HR (95% CI) vs sunitinib", "setting": "[2]; PD-L1+ (PD-L1 IHC IC1/2/3, ≥1%)", "result": 1.03}, {"measurement": "complete response (CR)", "setting": "[2]; PD-L1+ patients", "result": 15, "unit": "%"}, {"measurement": "objective response rate (ORR)", "setting": "[2]; PD-L1+ patients", "result": 28, "unit": "%"}, {"measurement": "partial response (PR)", "setting": "[2]; PD-L1+ patients", "result": 13, "unit": "%"}, {"measurement": "median progression-free survival (PFS)", "setting": "[2]; [5]", "result": 5.5, "unit": "months"}, {"measurement": "Stratified PFS HR (95% CI) vs sunitinib", "setting": "[2]; PD-L1 IHC IC2/3 (≥5%)", "result": 0.64}]}
